The text below walks through data of patent publication US20120302607A1, “C4-SUBSTITUTED ALPHA-KETO OXAZOLES” (The Scripps Research Institute, priority 2008, published 2012).

Series [1] deals with T1, FAAH (UniProt O08914).
T1 sequence (O08914 1-579): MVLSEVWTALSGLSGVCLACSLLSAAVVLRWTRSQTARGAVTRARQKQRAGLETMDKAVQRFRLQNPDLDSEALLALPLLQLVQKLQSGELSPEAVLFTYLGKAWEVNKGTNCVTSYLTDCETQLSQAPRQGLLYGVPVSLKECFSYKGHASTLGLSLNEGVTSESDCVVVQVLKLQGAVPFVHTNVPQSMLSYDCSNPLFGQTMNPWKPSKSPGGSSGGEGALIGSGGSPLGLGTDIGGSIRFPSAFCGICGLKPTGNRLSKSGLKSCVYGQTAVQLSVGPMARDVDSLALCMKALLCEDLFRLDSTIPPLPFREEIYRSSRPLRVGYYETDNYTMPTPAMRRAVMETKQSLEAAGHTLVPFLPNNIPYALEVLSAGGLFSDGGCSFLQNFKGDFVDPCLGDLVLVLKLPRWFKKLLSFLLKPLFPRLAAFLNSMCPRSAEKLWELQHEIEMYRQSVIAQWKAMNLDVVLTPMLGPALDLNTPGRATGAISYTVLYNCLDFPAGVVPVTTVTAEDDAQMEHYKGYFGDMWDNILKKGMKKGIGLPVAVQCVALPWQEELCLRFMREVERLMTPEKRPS
The experiment in a line: Proteome-wide serine hydrolase selectivity screening, FAAH. Type of series: biochemical, human.

Series [2] concerns the target T2, triacylglycerol hydrolase (TGH) (UniProt Q8VCT4).
T2 sequence (Q8VCT4 1-565): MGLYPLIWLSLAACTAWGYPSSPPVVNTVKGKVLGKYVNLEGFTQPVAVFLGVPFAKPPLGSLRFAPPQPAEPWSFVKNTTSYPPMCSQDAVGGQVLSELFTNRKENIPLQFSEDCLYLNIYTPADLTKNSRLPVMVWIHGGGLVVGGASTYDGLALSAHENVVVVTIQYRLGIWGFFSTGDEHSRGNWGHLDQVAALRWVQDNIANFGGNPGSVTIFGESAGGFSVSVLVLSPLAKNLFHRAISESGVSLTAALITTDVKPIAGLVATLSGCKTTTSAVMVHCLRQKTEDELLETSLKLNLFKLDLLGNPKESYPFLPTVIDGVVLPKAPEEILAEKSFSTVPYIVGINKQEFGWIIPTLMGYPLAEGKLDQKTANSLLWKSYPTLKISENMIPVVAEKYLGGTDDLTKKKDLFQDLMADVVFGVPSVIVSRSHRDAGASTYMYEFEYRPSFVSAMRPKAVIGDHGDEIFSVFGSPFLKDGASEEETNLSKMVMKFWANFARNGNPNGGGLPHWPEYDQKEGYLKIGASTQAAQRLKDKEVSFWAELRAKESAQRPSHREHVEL
The experiment in a line: Proteome-wide serine hydrolase selectivity screening, TGH. The class given is biochemical, human. Conditions: selectivity screening.

Series [3] has as its target T3, membrane-associated hydrolase (KIAA1363) (UniProt Q8BLF1).
T3 sequence (Q8BLF1 1-408): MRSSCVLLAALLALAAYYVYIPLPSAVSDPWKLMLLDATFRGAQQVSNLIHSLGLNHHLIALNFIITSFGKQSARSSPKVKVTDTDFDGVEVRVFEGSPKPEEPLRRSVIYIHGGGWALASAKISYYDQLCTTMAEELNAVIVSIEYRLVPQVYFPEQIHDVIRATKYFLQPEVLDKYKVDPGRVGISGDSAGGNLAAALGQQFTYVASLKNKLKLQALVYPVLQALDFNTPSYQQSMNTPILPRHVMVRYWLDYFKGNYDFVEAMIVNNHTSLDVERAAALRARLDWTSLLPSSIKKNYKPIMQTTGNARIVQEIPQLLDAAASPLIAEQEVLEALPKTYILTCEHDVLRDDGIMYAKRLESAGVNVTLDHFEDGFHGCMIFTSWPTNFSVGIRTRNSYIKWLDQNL
Briefly: Proteome-wide serine hydrolase selectivity screening, KIAA1363. The class given is biochemical. Conditions: selectivity screening.

For series [4], the target named is T4, truncated rat FAAH (rFAAH) (Rattus norvegicus, UniProt P97612).
T4 construct: The truncated rat FAAH (rFAAH) was expressed in E. coli and purified as described by Patricelli et al; made in house; host or cells: E. coli
T4 sequence (P97612 30-579 limits assumed): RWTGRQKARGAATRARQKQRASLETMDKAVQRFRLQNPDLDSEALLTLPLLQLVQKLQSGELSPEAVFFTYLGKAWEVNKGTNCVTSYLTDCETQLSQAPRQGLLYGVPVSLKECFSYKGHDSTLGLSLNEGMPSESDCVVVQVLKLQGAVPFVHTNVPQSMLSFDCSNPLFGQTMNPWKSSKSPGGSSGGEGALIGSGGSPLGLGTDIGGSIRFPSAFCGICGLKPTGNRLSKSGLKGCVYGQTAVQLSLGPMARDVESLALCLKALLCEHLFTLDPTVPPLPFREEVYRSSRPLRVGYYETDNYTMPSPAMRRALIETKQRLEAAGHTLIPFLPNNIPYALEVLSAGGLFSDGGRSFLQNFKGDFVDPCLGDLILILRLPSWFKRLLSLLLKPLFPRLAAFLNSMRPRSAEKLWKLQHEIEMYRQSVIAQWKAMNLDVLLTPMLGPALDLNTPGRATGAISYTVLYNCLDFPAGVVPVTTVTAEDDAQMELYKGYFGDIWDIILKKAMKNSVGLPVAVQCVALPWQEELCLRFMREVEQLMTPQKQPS
Briefly: Rat FAAH inhibition enzyme assay (14C-oleamide hydrolysis, Dixon plot). Type of series: biochemical. The protocol:
The purified recombinant rFAAH was used in the inhibition assays unless otherwise indicated.
The ^14C-labeled oleamide (substrate) and oleic acid (product) were extracted with EtOAc and analyzed by TLC. The Ki of the inhibitor was calculated using a Dixon plot (standard deviations are provided in the Supporting Information tables).

Series [5] can be described thus: % hydration or hemiketal formation by 1H and 13C NMR in solvent. Type of series: physicochemical. The settings on record: for form in protic solution: at C4, not C2, 1H and 13C NMR. From the text: The evaluation of Ki provides information about active site binding. […] More subtly, aldehyde 4g (and trifluoromethyl ketone 4i) was established to exist in protic solution as gem diols (at C4, not C2; ^1H and ^13C NMR, data in Examples below).

Series [6] relates to triacylglycerol hydrolase (TGH). Briefly: Proteome-wide serine hydrolase selectivity screening, TGH. The class given is biochemical, human. The settings on record: FAAH versus TGH; for TGH (selectivity): value in parentheses.
In series [7] the test system is membrane-associated hydrolase (KIAA1363). The experiment in a line: Proteome-wide serine hydrolase selectivity screening, KIAA1363. Type of series: biochemical. The settings on record: value in parentheses; FAAH versus KIAA1363.
Where [8] appears, read: Table 1, purified recombinant rFAAH, pH 9.0, read-out: Rat FAAH inhibition Ki.
The mark [9] stands for this setting: Table 4, value ± error, read-out: Ki, inhibition results with calculated errors.
Where [10] appears, read: CD3OD, at the C4 substituent carbonyl.

Read-outs that look alike come from different tables or passages of the source. Some results are limits rather than exact numbers.

`O=C(CCCCCCc1ccccc1)c1ncco1` [Compound 4a]: the IC50 – broadly, the concentration that inhibits the measured activity by half – in series [1] was 2500 nM; in series [2], 20 nM; in series [3], 20000 nM.
On to `O=C(CCCCCCc1ccccc1)c1nc(Br)co1` [Compound 4b, 1-(4-Bromooxazol-2-yl)-7-phenylheptan-1-one], for which the Ki (usually a dissociation constant, usually derived from enzyme kinetics or from competition with a known ligand) in series [4] (setting [8]) is 3 nM; in series [4] (setting [9]) it was 3 ± 0.02 nM.
For `O=C(CCCCCCc1ccccc1)c1nc(Cl)co1` [Compound 4c, 1-(4-Chlorooxazol-2-yl)-7-phenylheptan-1-one], the Ki was 4 nM in series [4] (setting [8]) and 4 ± 0.05 nM in series [4] (setting [9]).
For `O=C(CCCCCCc1ccccc1)c1nc(I)co1` [Compound 4d, 1-(4-Iodooxazol-2-yl)-7-phenylheptan-1-one], in that order: 6.5 nM and 6.5 ± 0.26 nM.
On the same counts, the results for `Cc1coc(C(=O)CCCCCCc2ccccc2)n1` [Compound 4e, 1-(4-Methyloxazol-2-yl)-7-phenylheptan-1-one] are 520 nM and 520 ± 1 nM.
On the same counts, the results for `CSc1coc(C(=O)CCCCCCc2ccccc2)n1` [Compound 4f, 1-(4-(Methylthio)oxazol-2-yl)-7-phenylheptan-1-one] are 29 nM and 29 ± 0.2 nM.
Consider `O=Cc1coc(C(=O)CCCCCCc2ccccc2)n1` [Compound 4g, 2-(7-Phenylheptanoyl)oxazole-4-carbaldehyde], for which the figures for the Ki in series [4] (setting [8]) and in series [4] (setting [9]) were 55 nM and 55 ± 5 nM, respectively. Besides, the “% Hydration or Hemiketal Formation” value in series [5] (setting [10]) was more than 95% for CHO; in series [5] (CDCl3), 0%. The “form in protic solution” value in series [5] is “gem diols”.
`CC(=O)c1coc(C(=O)CCCCCCc2ccccc2)n1` [Compound 4h, 1-(4-Acetyloxazol-2-yl)-7-phenylheptan-1-one]: the Ki in series [4] (setting [8]) was 2 nM; in series [4] (setting [9]), 2 ± 0.07 nM.
`O=C(CCCCCCc1ccccc1)c1nc(C(=O)C(F)(F)F)co1` [Compound 4i, 7-Phenyl-1-(4-(2,2,2-trifluoroacetyl)oxazol-2-yl)heptan-1-one]: the inhibition constant (Ki) is 470 nM in series [4] (setting [8]) and 470 ± 2 nM in series [4] (setting [9]). For the same compound, the “form in protic solution” value in series [5] is “gem diols”.
Consider `COC(=O)c1coc(C(=O)CCCCCCc2ccccc2)n1` [Compound 4j, Methyl 2-(7-Phenylheptanoyl)oxazole-4-carboxylate], for which the Ki was 3.4 nM in series [4] (setting [8]) and 3.4 ± 0.05 nM in series [4] (setting [9]).
For the compound `O=C(CCCCCCc1ccccc1)c1nc(-c2ccccn2)co1` [Compound 4k, 7-Phenyl-1-(4-(pyridin-2-yl)oxazol-2-yl)heptan-1-one], the Ki was 1.9 nM in series [4] (setting [8]); 1.9 nM in series [4] (Table 2, read-out: FAAH Ki); 1.9 ± 0.02 nM in series [4] (setting [9]). Further, the IC50 in series [1] is 30 nM; in series [2], 10000 nM; in series [3] it was more than 100000 nM. Besides, the “enhancement in FAAH selectivity” value in series [6] (relative to 4a, text b175) was > 40,000 fold. In series [6], the “TGH (selectivity)” value is reported as “(330)”. In series [7], the “KIAA1363 (selectivity)” value was “(>3000)”.
For `O=C(CCCCCCc1ccccc1)c1nc(-c2cccnc2)co1` [Compound 4l, 7-Phenyl-1-(4-(pyridin-3-yl)oxazol-2-yl)heptan-1-one], the Ki in series [4] (setting [8]) was 18 nM; in series [4] (setting [9]), 18 ± 0.1 nM. Moreover, the “% Hydration or Hemiketal Formation” value in series [5] (setting [10]) is reported as more than 95% for COCF3; in series [5] (CDCl3), 33%.
Consider `O=C(CCCCCCc1ccccc1)c1nc(-c2ccncc2)co1` [Compound 4m, 7-phenyl-1-(4-(pyridin-4-yl)oxazol-2-yl)heptan-1-one], for which the Ki in series [4] (setting [8]) is 1.6 nM; in series [4] (Table 2, read-out: FAAH Ki), 1.7 nM; in series [4] (setting [9]) it was 1.6 ± 0.01 nM. The IC50 was 140 nM in series [1], 700 nM in series [2] and more than 100000 nM in series [3]. Besides, the “TGH (selectivity)” value in series [6] is “(5)”. The “KIAA1363 (selectivity)” value in series [7] is recorded as “(>700)”.
Consider `O=C(CCCCCCc1ccccc1)c1nc(-c2ccccc2)co1` [Compound 4n, 7-Phenyl-1-(4-phenyloxazol-2-yl)heptan-1-one], for which the Ki was 65 nM in series [4] (setting [8]) and 65 ± 4.4 nM in series [4] (setting [9]).
As to `O=C(O)c1coc(C(=O)CCCCCCc2ccccc2)n1` [Compound 4o, 2-(7-Phenylheptanoyl)oxazole-4-carboxylic Acid], the Ki in series [4] (setting [8]) is 53 nM; in series [4] (Table 2, read-out: FAAH Ki) it was 53 nM; in series [4] (setting [9]), 53 ± 1 nM. Further, the values for the IC50 in series [1], in series [2] and in series [3] were 500 nM, 2500 nM and more than 100000 nM, respectively. The “TGH (selectivity)” value in series [6] is “(5)”. The “KIAA1363 (selectivity)” value in series [7] is recorded as “(>200)”.
With `NC(=O)c1coc(C(=O)CCCCCCc2ccccc2)n1` [Compound 4p, 2-(7-Phenylheptanoyl)oxazole-4-carboxamide], the Ki is 1.6 nM in series [4] (setting [8]) and 1.6 ± 0.001 nM in series [4] (setting [9]).
For `CNC(=O)c1coc(C(=O)CCCCCCc2ccccc2)n1` [Compound 4q, N-Methyl-2-(7-phenylheptanoyl)oxazole-4-carboxamide], in that order: 1.8 nM and 1.8 ± 0.005 nM.
For `CN(C)C(=O)c1coc(C(=O)CCCCCCc2ccccc2)n1` [Compound 4r, N,N-Dimethyl-2-(7-phenylheptanoyl)oxazole-4-carboxamide], in that order: 35 nM and 35 ± 0.1 nM.
In the case of `COc1coc(C(=O)CCCCCCc2ccccc2)n1` [Compound 4u, 1-(4-Methoxyoxazol-2-yl)-7-phenylheptan-1-one], the figures for the Ki in series [4] (setting [8]) and in series [4] (setting [9]) were 740 nM and 740 ± 0.07 nM, respectively.
For `N#Cc1cnc(C(=O)CCCCCCc2ccccc2)o1` [Compound 5b, reference compound], the IC50 in series [2] was 20 nM; in series [3], more than 100000 nM.
As to `O=C(CCCCCCc1ccccc1)c1ncc(-c2ccccn2)o1` [Compound 5c, reference compound], the IC50 in series [3] was more than 100000 nM.
For the compound `O=C(O)c1cnc(C(=O)CCCCCCc2ccccc2)o1` [Compound 5d, reference compound], the IC50 in series [1] is 900 nM; in series [2], more than 100000 nM; in series [3], more than 100000 nM.
